This assay has as its target T1, Kv2.1 (Rattus norvegicus, UniProt P15387).
T1 construct: gene Kcnb1
T1 sequence (P15387 1-857): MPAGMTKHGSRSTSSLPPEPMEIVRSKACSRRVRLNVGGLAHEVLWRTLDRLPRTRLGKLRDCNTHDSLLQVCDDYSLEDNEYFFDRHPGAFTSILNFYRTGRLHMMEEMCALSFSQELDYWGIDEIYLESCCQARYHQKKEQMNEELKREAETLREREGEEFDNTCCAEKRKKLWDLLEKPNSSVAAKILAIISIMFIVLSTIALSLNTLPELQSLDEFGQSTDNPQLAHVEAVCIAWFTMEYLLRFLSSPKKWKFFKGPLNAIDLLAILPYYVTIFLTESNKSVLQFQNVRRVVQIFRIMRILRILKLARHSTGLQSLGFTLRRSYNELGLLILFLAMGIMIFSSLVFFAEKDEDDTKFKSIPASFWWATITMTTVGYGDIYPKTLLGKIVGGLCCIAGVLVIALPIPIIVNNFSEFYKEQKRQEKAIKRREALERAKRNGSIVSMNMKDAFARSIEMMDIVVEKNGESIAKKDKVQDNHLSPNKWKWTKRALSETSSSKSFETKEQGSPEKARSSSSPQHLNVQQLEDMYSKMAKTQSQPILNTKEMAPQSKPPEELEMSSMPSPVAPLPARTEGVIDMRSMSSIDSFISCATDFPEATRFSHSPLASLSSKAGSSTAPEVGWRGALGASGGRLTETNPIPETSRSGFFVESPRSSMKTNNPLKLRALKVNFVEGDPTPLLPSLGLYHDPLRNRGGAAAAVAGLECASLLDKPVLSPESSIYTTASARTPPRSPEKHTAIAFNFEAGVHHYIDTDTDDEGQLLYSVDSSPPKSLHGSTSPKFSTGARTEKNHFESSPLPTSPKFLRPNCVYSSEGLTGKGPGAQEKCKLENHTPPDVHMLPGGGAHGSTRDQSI
Put plainly: whole-cell patch clamp, HEK293 stably expressing Kv2.[…], sigma-1 receptor knockout; […] inhibition at […]. The format is cell-based.

Molecules are shown by their SMILES.

As to `COc1cccc2c1CCCC2CCCN1CCN(C2CCCCC2)CC1` (stereo not shown) [PB28], 10 µM produced 65% inhibition.

Values taken from publication PMC5601737, “Potential independent action of sigma receptor ligands through inhibition of the Kv2.1 channel” (Oncotarget, 2017).
